Test results taken from US20250108038A1 (priority 2023, published 2025).
Several values for one entry are separate records, joined by “and”; a condition that tells them apart may be missing. Equal entries are not always repeated.

Test system: Long Evans rats
Assay: Behavioral satiety sequence (BSS)
Format: in vivo, Long Evans rat
Source text: The Behavioural Satiety Sequence (BSS) is a technique used to evaluate physiological satiety. It is based on the expression of a sequence of behaviors including eating, grooming, locomotor activity, followed by resting, which are typically observed in rodents post-ingestion (Halford et al, 1998, Pharmacology Biochemistry and Behaviour. 61(2): 159-168). The BSS is a widely used model for determining the effects of novel pharmaceuticals on food intake and measures of satiety in rodents (Oliveira et al, 2011, Revista de Nutrição. 24(4) 619-628), and to discriminate the cause of reduced food intake following pharmacological manipulation. For example, treatments that may reduce food intake by non-specific mechanisms, such as immobility, malaise, and taste adulteration, will disrupt this sequence (Halford et al, 1998, Pharmacology Biochemistry and Behaviour. 61(2): 159-168).
Specifically, 12 male Long-Evans rats were food-deprived for 22 h with a 2 h feeding period each day. Rats were trained to consume daily food during the 2 h period over 25 days. The testing phase was initiated once the rats consistently consumed 16-18 g of food per day with ≤10% variance in amount of feed consumed. Feeding took place in designated individual boxes in a quiet room separate from the housing room. Continuous remote monitoring via video camera during feeding was used to assess the BSS. Food consumption was measured by weighing the total available food before and after the 2 h feeding window, correcting for spillage. Lorcaserin (1 mg/kg) was included as a reference control (Higgins et al, 2011, Neuropsychopharmacology. 37(5): 1177-1191). Subjects were tested using a repeated-measures, Latin square design with 2-3 days wash-out between treatment cycles.
On scheduled test days, animals were monitored remotely via video camera during the feeding access period. The occurrence of four mutually exclusive behaviors (eating/drinking, grooming, active, rest) were individually scored. Over the 2 h feeding period, behaviors were assessed every 30 seconds. Scores were compiled into 23 5 min timebins (timebin 24 was removed due to early removal of animals) and the frequency of each behavior within each timebin was calculated to determine a temporal frequency of each measure (Rodgers et al, 2010, Pharmacology Biochemistry and Behaviour. 97: 3-14). Percentage time was plotted for each behavioral sequence in each timebin to compare between treatment groups (Higgins et al, 2011, Neuropsychopharmacology. 37(5): 1177-1191).

[1] = Compound I-19 0.1 mg/kg, AVG of animals LT-1 to LT-12, 0-0.5 hours
[2] = Compound I-19 0.1 mg/kg, raw data per animal LT-1 to LT-12, 0-0.5 hours
[3] = Compound I-19 0.1 mg/kg, raw score per animal (LT-1 to LT-12)
[4] = Compound I-19 0.3 mg/kg, AVG of animals LT-1 to LT-12

`Clc1ccc(C2(OCC3OCCO3)c3ccccc3C3=NCCN32)cc1` (stereo not drawn) [Compound I-19] was tested, and the “BSS scoring E (eating/drinking), Time Bin 4 (15-20 TOTAL), AVG” value [1] was 0.87, the “BSS scoring E (eating/drinking), Time Bin 5 (20-25 TOTAL), AVG” value [1] was 0.89 and the “BSS scoring E (eating/drinking), Time Bin 6 (25-30 TOTAL), AVG” value [1] was 0.81. The “BSS scoring G (grooming), Time Bin 1 (0-5 TOTAL), AVG” value [1] was 0.02, the “BSS scoring G (grooming), Time Bin 2 (5-10 TOTAL), AVG” value [1] was 0.00 and the “BSS scoring G (grooming), Time Bin 3 (10-15 TOTAL), AVG” value [1] was 0.03. For the same compound, the “BSS scoring G (grooming), Time Bin 4 (15-20 TOTAL), AVG” value [1] was 0.03, the “BSS scoring G (grooming), Time Bin 5 (20-25 TOTAL), AVG” value [1] was 0.00 and the “BSS scoring G (grooming), Time Bin 6 (25-30 TOTAL), AVG” value [1] was 0.04. For the same compound, the “BSS scoring R (resting), Time Bin 1 (0-5 TOTAL), AVG” value [1] was 0.00, the “BSS scoring R (resting), Time Bin 2 (5-10 TOTAL), AVG” value [1] was 0.00 and the “BSS scoring R (resting), Time Bin 3 (10-15 TOTAL), AVG” value [1] was 0.00. The “BSS scoring R (resting), Time Bin 4 (15-20 TOTAL), AVG” value [1] was 0.02, the “BSS scoring R (resting), Time Bin 5 (20-25 TOTAL), AVG” value [1] was 0.03 and the “BSS scoring R (resting), Time Bin 6 (25-30 TOTAL), AVG” value [1] was 0.02. For the same compound, the “BSS scoring A (active), Time Bin 1 (0-5 TOTAL)” value [2] was 0 (3×) and 1 (7×) and 2 (2×), the “BSS scoring A (active), Time Bin 2 (5-10 TOTAL)” value [2] was 1 (5×) and 0 (7×) and the “BSS scoring A (active), Time Bin 3 (10-15 TOTAL)” value [2] was 1 (3×) and 0 (9×). The “BSS scoring A (active), Time Bin 4 (15-20 TOTAL)” value [2] was 5 and 0 (8×) and 4 and 1 (2×), the “BSS scoring A (active), Time Bin 5 (20-25 TOTAL)” value [2] was 1 (3×) and 0 (7×) and 3 (2×) and the “BSS scoring A (active), Time Bin 6 (25-30 TOTAL)” value [2] was 3 (2×) and 1 (6×) and 0 (3×) and 4. For the same compound, the “BSS scoring E (eating/drinking), Time Bin 1 (0-5 TOTAL)” value [2] was 10 (3×) and 8 (4×) and 9 (5×), the “BSS scoring E (eating/drinking), Time Bin 2 (5-10 TOTAL)” value [2] was 9 (5×) and 10 (7×) and the “BSS scoring E (eating/drinking), Time Bin 3 (10-15 TOTAL)” value [2] was 9 (6×) and 10 (6×). For the same compound, the “BSS scoring E (eating/drinking), Time Bin 4 (15-20 TOTAL)” value [2] was 5 and 10 (5×) and 9 (5×) and 4, the “BSS scoring E (eating/drinking), Time Bin 5 (20-25 TOTAL)” value [2] was 9 (3×) and 10 (6×) and 6 and 7 (2×) and the “BSS scoring E (eating/drinking), Time Bin 6 (25-30 TOTAL)” value [2] was 5 (2×) and 8 (4×) and 9 (2×) and 10 (3×) and 7. For the same compound, the “BSS scoring G (grooming), Time Bin 1 (0-5 TOTAL)” value [2] was 0 (10×) and 1 (2×), the “BSS scoring G (grooming), Time Bin 2 (5-10 TOTAL)” value [2] was 0 and the “BSS scoring G (grooming), Time Bin 3 (10-15 TOTAL)” value [2] was 0 (9×) and 1 (3×). The “BSS scoring G (grooming), Time Bin 4 (15-20 TOTAL)” value [2] was 0 (9×) and 1 (3×), the “BSS scoring G (grooming), Time Bin 5 (20-25 TOTAL)” value [2] was 0 and the “BSS scoring G (grooming), Time Bin 6 (25-30 TOTAL)” value [2] was 0 (7×) and 1 (5×). For the same compound, the “BSS scoring R (resting), Time Bin 1 (0-5 TOTAL)” value [2] was 0, the “BSS scoring R (resting), Time Bin 2 (5-10 TOTAL)” value [2] was 0 and the “BSS scoring R (resting), Time Bin 3 (10-15 TOTAL)” value [2] was 0. For the same compound, the “BSS scoring R (resting), Time Bin 4 (15-20 TOTAL)” value [2] was 0 (10×) and 1 (2×), the “BSS scoring R (resting), Time Bin 5 (20-25 TOTAL)” value [2] was 0 (9×) and 1 (2×) and 2 and the “BSS scoring R (resting), Time Bin 6 (25-30 TOTAL)” value [2] was 2 and 0 (11×). For the same compound, the “BSS scoring A (active), Time Bin 19 (90-95 TOTAL)” value [3] was 8 and 2 (6×) and 5 and 1 and 7 and 0 and 3, the “BSS scoring A (active), Time Bin 20 (95-100 TOTAL)” value [3] was 1 (4×) and 0 (4×) and 2 (3×) and 6 and the “BSS scoring A (active), Time Bin 21 (100-105 TOTAL)” value [3] was 0 (8×) and 3 and 1 and 4 and 2. The “BSS scoring A (active), Time Bin 22 (105-110 TOTAL)” value [3] was 0 (6×) and 4 and 1 (2×) and 2 and 5 and 3, the “BSS scoring A (active), Time Bin 23 (110-115 TOTAL)” value [3] was 1 and 0 (5×) and 4 and 2 (2×) and 8 and 5 and 3 and the “BSS scoring A (active), Time Bin 24 (115-120 TOTAL)” value [3] was 0 (5×) and 4 and 1 (2×) and 2 (2×) and 3 and 6. For the same compound, the “BSS scoring E (eating/drinking), Time Bin 19 (90-95 TOTAL)” value [3] was 2 and 4 (3×) and 6 and 0 and 7 (3×) and 3 and 10 and 8, the “BSS scoring E (eating/drinking), Time Bin 20 (95-100 TOTAL)” value [3] was 9 and 5 and 10 (3×) and 7 (2×) and 0 and 8 and 6 (2×) and 3 and the “BSS scoring E (eating/drinking), Time Bin 21 (100-105 TOTAL)” value [3] was 10 (3×) and 3 and 9 (3×) and 0 and 8 (2×) and 5 and 6. For the same compound, the “BSS scoring E (eating/drinking), Time Bin 22 (105-110 TOTAL)” value [3] was 10 (2×) and 3 and 9 (2×) and 0 and 6 (2×) and 8 (3×) and 4, the “BSS scoring E (eating/drinking), Time Bin 23 (110-115 TOTAL)” value [3] was 9 (5×) and 10 and 3 (2×) and 0 and 4 and 5 and 7 and the “BSS scoring E (eating/drinking), Time Bin 24 (115-120 TOTAL)” value [3] was 10 (2×) and 5 and 8 (3×) and 2 and 0 (2×) and 6 and 1 and 4. For the same compound, the “BSS scoring G (grooming), Time Bin 19 (90-95 TOTAL)” value [3] was 0 (8×) and 1 (4×), the “BSS scoring G (grooming), Time Bin 20 (95-100 TOTAL)” value [3] was 0 (8×) and 2 (2×) and 1 (2×) and the “BSS scoring G (grooming), Time Bin 21 (100-105 TOTAL)” value [3] was 0 (8×) and 1 (3×) and 2. The “BSS scoring G (grooming), Time Bin 22 (105-110 TOTAL)” value [3] was 0 (8×) and 2 and 1 (3×), the “BSS scoring G (grooming), Time Bin 23 (110-115 TOTAL)” value [3] was 0 (8×) and 1 (4×) and the “BSS scoring G (grooming), Time Bin 24 (115-120 TOTAL)” value [3] was 0 (9×) and 1 (2×) and 2. The “BSS scoring R (resting), Time Bin 19 (90-95 TOTAL)” value [3] was 0 (7×) and 4 and 1 (2×) and 9 and 3, the “BSS scoring R (resting), Time Bin 20 (95-100 TOTAL)” value [3] was 0 (6×) and 2 (2×) and 10 and 1 (3×) and the “BSS scoring R (resting), Time Bin 21 (100-105 TOTAL)” value [3] was 0 (7×) and 4 and 1 (2×) and 10 and 2. The “BSS scoring R (resting), Time Bin 22 (105-110 TOTAL)” value [3] was 0 (4×) and 1 (5×) and 8 and 3 and 2, the “BSS scoring R (resting), Time Bin 23 (110-115 TOTAL)” value [3] was 0 (3×) and 2 (2×) and 1 (6×) and 4 and the “BSS scoring R (resting), Time Bin 24 (115-120 TOTAL)” value [3] was 0 (8×) and 1 (2×) and 8 and 5. The “BSS scoring A (active), Time Bin 19 (90-95 TOTAL), AVG” value [4] was 0.21, the “BSS scoring A (active), Time Bin 20 (95-100 TOTAL), AVG” value [4] was 0.17 and the “BSS scoring A (active), Time Bin 21 (100-105 TOTAL), AVG” value [4] was 0.06. For the same compound, the “BSS scoring A (active), Time Bin 22 (105-110 TOTAL), AVG” value [4] was 0.08, the “BSS scoring A (active), Time Bin 23 (110-115 TOTAL), AVG” value [4] was 0.28 and the “BSS scoring A (active), Time Bin 24 (115-120 TOTAL), AVG” value [4] was 0.14. The “BSS scoring E (eating/drinking), Time Bin 19 (90-95 TOTAL), AVG” value [4] was 0.63, the “BSS scoring E (eating/drinking), Time Bin 20 (95-100 TOTAL), AVG” value [4] was 0.69 and the “BSS scoring E (eating/drinking), Time Bin 21 (100-105 TOTAL), AVG” value [4] was 0.73. The “BSS scoring E (eating/drinking), Time Bin 22 (105-110 TOTAL), AVG” value [4] was 0.69, the “BSS scoring E (eating/drinking), Time Bin 23 (110-115 TOTAL), AVG” value [4] was 0.52 and the “BSS scoring E (eating/drinking), Time Bin 24 (115-120 TOTAL), AVG” value [4] was 0.44.
